Assay results as given in ChEMBL document CHEMBL1127919 (Bioorg Med Chem Lett, 1994).
The source made the active and inactive calls. The calls are words filed in the database; no cut-off is given here.

Assays:
Xenopus laevis [1] = species: Xenopus laevis; test: Agonistic activity was determined in a pigment aggregation model using cultured melanophores isolated from the neural crest of Xenopus laevis embryos.; format: functional; conditions: frog; filed as agonist
Melatonin receptor = Melatonin receptor (Gallus gallus, UniProt P49288+P51050+P49285); test: Binding affinity towards melatonin receptor was determined using 2-[125I]iodomelatonin as radioligand in chick brain membranes; format: cell membranes, Membrane
Xenopus laevis [2] = species: Xenopus laevis; test: Agonistic activity was determined in a pigment aggregation model using cultured melanophores isolated from the neural crest of Xenopus laevis embryos; format: functional, frog
Xenopus laevis [3] = species: Xenopus laevis; test: Agonistic activity was determined in a pigment aggregation model using cultured melanophores isolated from the neural crest of Xenopus laevis embryos; partial agonist; format: functional; conditions: frog; filed as partial agonist
Xenopus laevis [4] = species: Xenopus laevis; test: Agonistic activity was determined in a pigment aggregation model using cultured melanophores isolated from the neural crest of Xenopus laevis embryos; inactive; format: functional; conditions: frog
Xenopus laevis [5] = species: Xenopus laevis; test: Agonistic activity was determined in a pigment aggregation model using cultured melanophores isolated from the neural crest of Xenopus laevis embryos; mixed; format: functional; conditions: frog; filed as partial agonist

Compound: COc1ccc2c(c1)c1c(n2C)CCCC1NC(C)=O (stereo not given)
- Activity (Xenopus laevis [1]): Agonist
- Ki (Melatonin receptor): 0.97 nM

Compound: CCCC(=O)NC1CCCc2c1c1cc(OC)ccc1n2C (stereo not given)
- EC50 (Xenopus laevis [2]): 2.5 nM
- Activity (Xenopus laevis [1]): Agonist
- Ki (Melatonin receptor): 0.378 nM

Compound: CCC(=O)NC1CCc2[nH]c3ccc(OC)cc3c2C1 (stereo not given)
- Ki (Melatonin receptor): 41 nM

Compound: COc1ccc2c(c1)c(CCNC(C)=O)cn2C
- Ki (Melatonin receptor): 254 nM

Compound: CCC(Br)C(=O)NC1CCc2[nH]c3ccccc3c2C1 (stereo not given)
- Ki (Melatonin receptor): > 10000 nM

Compound: CCC(=O)NC1CCc2[nH]c3ccccc3c2C1 (stereo not given)
- EC50 (Xenopus laevis [2]): > 10000 nM
- Ki (Melatonin receptor): 436 nM
- Activity (Xenopus laevis [3]): Partial agonist

Compound: CCC(=O)NC1CCCc2c1c1cc(OC)ccc1n2C (stereo not given)
- Activity (Xenopus laevis [1]): Agonist
- Ki (Melatonin receptor): 1.44 nM

Compound: COc1ccc2c(c1)c1c(n2C)CCCC1NC(=O)C(F)(F)F (stereo not given)
- Activity (Xenopus laevis [1]): Agonist
- Ki (Melatonin receptor): 1.98 nM

Compound: O=C(CBr)NC1CCc2[nH]c3ccccc3c2C1 (stereo not given)
- EC50 (Xenopus laevis [2]): < 1000 nM
- Ki (Melatonin receptor): 740 nM
- Activity (Xenopus laevis [3]): Partial agonist

Compound: CCCCC(=O)NC1CCCc2c1c1cc(OC)ccc1n2C (stereo not given)
- Activity (Xenopus laevis [1]): Agonist
- Ki (Melatonin receptor): 82 nM

Compound: COc1ccc2c(c1)c1c(n2C)CCCC1NC(=O)C1CCC1 (stereo not given)
- Activity (Xenopus laevis [1]): Agonist
- Ki (Melatonin receptor): 271 nM

Compound: COc1ccc2[nH]c3c(c2c1)CC(NC(=O)C(F)(F)F)CC3 (stereo not given)
- Ki (Melatonin receptor): 102 nM

Compound: CCC(=O)NC1CCCc2c1c1ccccc1n2C (stereo not given)
- Activity (Xenopus laevis [1]): Agonist
- Ki (Melatonin receptor): 204 nM

Compound: Cn1c2c(c3ccccc31)C(NC(=O)C1CC1)CCC2 (stereo not given)
- Activity (Xenopus laevis [1]): Agonist
- Ki (Melatonin receptor): 4460 nM

Compound: CCCCC(=O)NC1CCCc2c1c1ccccc1n2C (stereo not given)
- Activity (Xenopus laevis [1]): Agonist
- Ki (Melatonin receptor): > 10000 nM

Compound: O=C(NC1CCc2[nH]c3ccccc3c2C1)C(F)(F)F (stereo not given)
- Ki (Melatonin receptor): 4630 nM

Compound: CCCC(=O)NC1CCc2[nH]c3ccccc3c2C1 (stereo not given)
- Activity (Xenopus laevis [4]): inactive
- Ki (Melatonin receptor): 1060 nM

Compound: COc1ccc2[nH]c3c(c2c1)CC(NC(C)=O)CC3 (stereo not given)
- Activity (Xenopus laevis [1]): Agonist
- Ki (Melatonin receptor): 219 nM

Compound: CC(=O)NC1CCc2[nH]c3ccccc3c2C1 (stereo not given)
- Ki (Melatonin receptor): 5350 nM

Compound: Cn1c2c(c3ccccc31)C(NC(=O)C(F)(F)F)CCC2 (stereo not given)
- Activity (Xenopus laevis [1]): Agonist
- Ki (Melatonin receptor): 766 nM

Compound: CCCC(=O)NC1CCc2[nH]c3ccc(OC)cc3c2C1 (stereo not given)
- EC50 (Xenopus laevis [2]): 10000 nM
- Activity (Xenopus laevis [1]): Agonist
- Ki (Melatonin receptor): 560 nM

Compound: CC(=O)NC1CCCc2c1c1ccccc1n2C (stereo not given)
- Activity (Xenopus laevis [1]): Agonist
- Ki (Melatonin receptor): 227 nM

Compound: CCCC(=O)NC1CCCc2c1c1ccccc1n2C (stereo not given)
- Activity (Xenopus laevis [1]): Agonist
- Ki (Melatonin receptor): 215 nM

Compound: COc1ccc2c(c1)c1c(n2C)CCCC1NC(=O)C1CC1 (stereo not given)
- Activity (Xenopus laevis [1]): Agonist
- Ki (Melatonin receptor): 30 nM

Compound: COc1ccc2[nH]c3c(c2c1)CC(NC(=O)C1CC1)CC3 (stereo not given)
- Activity (Xenopus laevis [1]): Agonist
- Ki (Melatonin receptor): 570 nM

Compound: COc1ccc2[nH]c3c(c2c1)CC(NC(=O)CBr)CC3 (stereo not given)
- Ki (Melatonin receptor): 8.3 nM
- Activity (Xenopus laevis [5]): Partial agonist
